Results reported in patent US8952024B2, “Herbicidal pyrimidone derivatives” (E I du Pont de Nemours and Company, priority 2009, dated 2015).

Assays:
Experiment in all cases: Test B pre-/postemergence plant response
Assay type in all cases: in vivo
[1] = system: lambsquarters (Chenopodium album)
Summary of the method: (§1)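 Plants treated either at seeding (loam/sand soil) or postemergence at 2 to 18 cm height, using a surfactant-containing non-phytotoxic solvent formulation. Evaluation was visual after 13 to 15 days, 0 to 100 scale relative to controls.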

soybean (Glycine max) = system: soybean (Glycine max)
Summary of the method: as §1

[2] = system: yellow nutsedge (Cyperus esculentus)
Summary of the method: as §1

[3] = system: wheat (Triticum aestivum)
Summary of the method: as §1

[4] = system: woolly cupgrass (Eriochloa villosa)
Summary of the method: as §1

[5] = system: goosegrass (Eleusine indica)
Summary of the method: as §1

[6] = system: green foxtail (Setaria viridis)
Summary of the method: as §1

[7] = system: johnsongrass (Sorghum halepense)
Summary of the method: as §1

kochia (Kochia scoparia) = system: kochia (Kochia scoparia)
Summary of the method: as §1

[8] = system: velvetleaf (Abutilon theophrasti)
Summary of the method: as §1

[9] = system: bermudagrass (Cynodon dactylon)
Summary of the method: as §1

[10] = system: ragweed (common ragweed, Ambrosia elatior)
Summary of the method: as §1

[11] = system: large crabgrass (Digitaria sanguinalis)
Summary of the method: as §1

[12] = 250 g ai/ha, Preemergence, 0 to 100 scale
[13] = Postemergence, 62 g ai/ha, scale 0 (no effect) to 100 (complete control), 13 to 15 days
[14] = Postemergence, 125 g ai/ha, visual rating after 13 to 15 days, scale 0 (no effect) to 100 (complete control)
[15] = Postemergence, 250 g ai/ha, scale 0 to 100
[16] = Preemergence, 31 g ai/ha, scale 0 to 100 (0 no effect, 100 complete control)
[17] = Preemergence, 62 g ai/ha, scale 0 to 100 (0 no effect, 100 complete control)
[18] = Preemergence, 125 g ai/ha, 0 to 100 scale
[19] = Postemergence, 31 g ai/ha, scale 0 to 100 (0 no effect, 100 complete control)
[20] = 31 g ai/ha, postemergence, scale 0 to 100, 0 is no effect, 100 is complete control
[21] = Postemergence, 250 g ai/ha, scale 0 to 100 (0 no effect, 100 complete control)
[22] = Preemergence, 125 g ai/ha, scale 0 to 100, 0 no effect, 100 complete control

`CCCCc1ncc(C(=O)C2=C(O)CCCC2=O)c(=O)n1-c1ccccc1` [Compound 42] was tested, and the “Plant response rating, Lambsquarters” value [1, 12] was 100, the “Plant response rating, Lambsquarters” value [1, 13] was 95 and the “Plant response rating, Lambsquarters” value [1, 14] was 100. The “Lambsquarters plant response rating” value [1, 15] was 100, the “Plant response rating, Lambsquarters” value [1, 16] was 100 and the “Plant response rating, Lambsquarters” value [1, 17] was 100. For the same compound, the “Lambsquarters plant response rating” value [1, 18] was 100, the “Plant response rating, Soybean” value (soybean (Glycine max); [12]) was 0 and the “Plant response rating, Soybean” value (soybean (Glycine max); [13]) was 90. The “Plant response rating, Soybean” value (soybean (Glycine max); [14]) was 95, the “Plant response rating, Soybean” value (soybean (Glycine max); [16]) was 0 and the “Soybean plant response rating” value (soybean (Glycine max); [18]) was 0. For the same compound, the “Plant response rating, Nutsedge, Yellow” value [2, 12] was 85, the “Plant response rating, Nutsedge, Yellow” value [2, 13] was 60 and the “Plant response rating, Nutsedge, Yellow” value [2, 14] was 70. The “Plant response rating, Nutsedge, Yellow” value [2, 16] was 10, the “Nutsedge, Yellow plant response rating” value [2, 18] was 75 and the “Plant response rating, Wheat” value [3, 12] was 0. The “Plant response rating, Wheat” value [3, 13] was 0, the “Plant response rating, Wheat” value [3, 14] was 5 and the “Plant response rating, Wheat” value [3, 16] was 0. For the same compound, the “Wheat plant response rating” value [3, 18] was 0, the “Plant response rating, Cupgrass, Woolly” value [4, 12] was 5 and the “Plant response rating, Cupgrass, Woolly” value [4, 19] was 15. For the same compound, the “Plant response rating, Cupgrass, Woolly” value [4, 13] was 20, the “Plant response rating, Cupgrass, Woolly” value [4, 14] was 25 and the “Cupgrass, Woolly plant response rating” value [4, 15] was 55. The “Plant response rating, Cupgrass, Woolly” value [4, 16] was 0, the “Plant response rating, Cupgrass, Woolly” value [4, 17] was 0 and the “Cupgrass, Woolly plant response rating” value [4, 18] was 0. For the same compound, the “Plant response rating, Goosegrass” value [5, 12] was 100, the “Plant response rating, Goosegrass” value [5, 13] was 85 and the “Plant response rating, Goosegrass” value [5, 14] was 90. The “Goosegrass plant response rating” value [5, 15] was 95, the “Plant response rating, Goosegrass” value [5, 16] was 50 and the “Goosegrass plant response rating” value [5, 18] was 100. For the same compound, the “Plant response rating, Foxtail, Green” value [6, 12] was 85, the “Plant response rating, Foxtail, Green” value [6, 19] was 50 and the “Plant response rating, Foxtail, Green” value [6, 13] was 55. For the same compound, the “Plant response rating, Foxtail, Green” value [6, 14] was 60, the “Foxtail, Green plant response rating” value [6, 15] was 85 and the “Plant response rating, Foxtail, Green” value [6, 16] was 65. The “Plant response rating, Foxtail, Green” value [6, 17] was 65, the “Foxtail, Green plant response rating” value [6, 18] was 85 and the “Plant response rating, Johnsongrass” value [7, 12] was 65. The “Plant response rating, Johnsongrass” value [7, 13] was 0, the “Plant response rating, Johnsongrass” value [7, 14] was 40 and the “Johnsongrass plant response rating” value [7, 15] was 65. The “Plant response rating, Johnsongrass” value [7, 16] was 0, the “Plant response rating, Johnsongrass” value [7, 17] was 0 and the “Johnsongrass plant response rating” value [7, 18] was 10. The “Plant response rating, Kochia” value (kochia (Kochia scoparia); [13]) was 100, the “Plant response rating, Kochia” value (kochia (Kochia scoparia); [14]) was 100 and the “Kochia plant response rating” value (kochia (Kochia scoparia); [15]) was 100. For the same compound, the “Plant response rating, Velvetleaf” value [8, 12] was 90, the “Plant response rating, Velvetleaf” value [8, 13] was 80 and the “Plant response rating, Velvetleaf” value [8, 14] was 95. The “Plant response rating, Velvetleaf” value [8, 16] was 75, the “Velvetleaf plant response rating” value [8, 18] was 85 and the “Plant response rating, Bermudagrass” value [9, 12] was 100. For the same compound, the “Plant response rating, Bermudagrass” value [9, 19] was 70, the “Plant response rating, Bermudagrass” value [9, 13] was 75 and the “Plant response rating, Bermudagrass” value [9, 14] was 95. The “Bermudagrass plant response rating” value [9, 15] was 98, the “Plant response rating, Bermudagrass” value [9, 16] was 90 and the “Plant response rating, Bermudagrass” value [9, 17] was 100. For the same compound, the “Bermudagrass plant response rating” value [9, 18] was 100, the “Plant response rating, Ragweed” value [10, 12] was 80 and the “Plant response rating, Ragweed” value [10, 13] was 75. The “Plant response rating, Ragweed” value [10, 14] was 85, the “Plant response rating, Ragweed” value [10, 16] was 0 and the “Ragweed plant response rating” value [10, 18] was 25. The “Plant response rating, Crabgrass, Large” value [11, 12] was 100, the “Plant response rating, Crabgrass, Large” value [11, 19] was 70 and the “Plant response rating, Crabgrass, Large” value [11, 13] was 75. The “Plant response rating, Crabgrass, Large” value [11, 14] was 85, the “Crabgrass, Large plant response rating” value [11, 15] was 90 and the “Plant response rating, Crabgrass, Large” value [11, 16] was 45. For the same compound, the “Plant response rating, Crabgrass, Large” value [11, 17] was 85 and the “Crabgrass, Large plant response rating” value [11, 18] was 95.
In the case of `Cn1c(-c2ccccc2)ncc(C(=O)C2=C(O)CCCC2=O)c1=O` [Compound 55], the “Plant response rating, Lambsquarters” value [1, 20] is reported as 80, the “Plant response rating, Lambsquarters” value [1, 12] is reported as 100 and the “Plant response rating, Lambsquarters” value [1, 13] is reported as 80. The “Plant response rating, Lambsquarters” value [1, 14] was 95, the “Plant response rating, Lambsquarters” value [1, 21] was 98 and the “Plant response rating, Lambsquarters” value [1, 16] was 95. The “Plant response rating, Lambsquarters” value [1, 17] was 98, the “Plant response rating, Lambsquarters” value [1, 22] was 98 and the “Plant response rating, Soybean” value (soybean (Glycine max); [20]) was 25. For the same compound, the “Plant response rating, Soybean” value (soybean (Glycine max); [13]) was 60, the “Plant response rating, Soybean” value (soybean (Glycine max); [14]) was 60 and the “Plant response rating, Soybean” value (soybean (Glycine max); [21]) was 75. The “Plant response rating, Soybean” value (soybean (Glycine max); [16]) was 0, the “Plant response rating, Soybean” value (soybean (Glycine max); [17]) was 0 and the “Plant response rating, Soybean” value (soybean (Glycine max); [22]) was 15. The “Plant response rating, Nutsedge, Yellow” value [2, 20] was 10, the “Plant response rating, Nutsedge, Yellow” value [2, 13] was 10 and the “Plant response rating, Nutsedge, Yellow” value [2, 14] was 55. The “Plant response rating, Nutsedge, Yellow” value [2, 21] was 65, the “Plant response rating, Nutsedge, Yellow” value [2, 16] was 0 and the “Plant response rating, Nutsedge, Yellow” value [2, 17] was 45. For the same compound, the “Plant response rating, Nutsedge, Yellow” value [2, 22] was 45, the “Plant response rating, Wheat” value [3, 20] was 0 and the “Plant response rating, Wheat” value [3, 13] was 0. The “Plant response rating, Wheat” value [3, 14] was 5, the “Plant response rating, Wheat” value [3, 21] was 10 and the “Plant response rating, Wheat” value [3, 16] was 0. For the same compound, the “Plant response rating, Wheat” value [3, 17] was 0, the “Plant response rating, Wheat” value [3, 22] was 0 and the “Plant response rating, Cupgrass, Woolly” value [4, 20] was 10. For the same compound, the “Plant response rating, Cupgrass, Woolly” value [4, 12] was 55, the “Plant response rating, Cupgrass, Woolly” value [4, 13] was 10 and the “Plant response rating, Cupgrass, Woolly” value [4, 14] was 15. The “Plant response rating, Cupgrass, Woolly” value [4, 21] was 20, the “Plant response rating, Cupgrass, Woolly” value [4, 16] was 0 and the “Plant response rating, Cupgrass, Woolly” value [4, 17] was 0. The “Plant response rating, Cupgrass, Woolly” value [4, 22] was 0, the “Plant response rating, Goosegrass” value [5, 20] was 45 and the “Plant response rating, Goosegrass” value [5, 12] was 98. The “Plant response rating, Goosegrass” value [5, 13] was 60, the “Plant response rating, Goosegrass” value [5, 14] was 65 and the “Plant response rating, Goosegrass” value [5, 21] was 75. The “Plant response rating, Goosegrass” value [5, 16] was 45, the “Plant response rating, Goosegrass” value [5, 17] was 95 and the “Plant response rating, Goosegrass” value [5, 22] was 98. For the same compound, the “Plant response rating, Foxtail, Green” value [6, 20] was 30, the “Plant response rating, Foxtail, Green” value [6, 12] was 0 and the “Plant response rating, Foxtail, Green” value [6, 13] was 40. For the same compound, the “Plant response rating, Foxtail, Green” value [6, 14] was 80, the “Plant response rating, Foxtail, Green” value [6, 21] was 80 and the “Plant response rating, Foxtail, Green” value [6, 16] was 0. The “Plant response rating, Foxtail, Green” value [6, 17] was 0, the “Plant response rating, Foxtail, Green” value [6, 22] was 0 and the “Plant response rating, Johnsongrass” value [7, 20] was 0. For the same compound, the “Plant response rating, Johnsongrass” value [7, 12] was 0, the “Plant response rating, Johnsongrass” value [7, 13] was 0 and the “Plant response rating, Johnsongrass” value [7, 14] was 10. The “Plant response rating, Johnsongrass” value [7, 21] was 20, the “Plant response rating, Johnsongrass” value [7, 16] was 0 and the “Plant response rating, Johnsongrass” value [7, 17] was 0. The “Plant response rating, Johnsongrass” value [7, 22] was 0, the “Plant response rating, Kochia” value (kochia (Kochia scoparia); [20]) was 20 and the “Plant response rating, Kochia” value (kochia (Kochia scoparia); [13]) was 65. The “Plant response rating, Kochia” value (kochia (Kochia scoparia); [14]) was 75, the “Plant response rating, Kochia” value (kochia (Kochia scoparia); [21]) was 85 and the “Plant response rating, Velvetleaf” value [8, 20] was 90. The “Plant response rating, Velvetleaf” value [8, 13] was 98, the “Plant response rating, Velvetleaf” value [8, 14] was 98 and the “Plant response rating, Velvetleaf” value [8, 21] was 100. The “Plant response rating, Velvetleaf” value [8, 16] was 75, the “Plant response rating, Velvetleaf” value [8, 17] was 98 and the “Plant response rating, Velvetleaf” value [8, 22] was 100. The “Plant response rating, Bermudagrass” value [9, 20] was 80, the “Plant response rating, Bermudagrass” value [9, 12] was 100 and the “Plant response rating, Bermudagrass” value [9, 13] was 80. For the same compound, the “Plant response rating, Bermudagrass” value [9, 14] was 85, the “Plant response rating, Bermudagrass” value [9, 21] was 90 and the “Plant response rating, Bermudagrass” value [9, 16] was 95. The “Plant response rating, Bermudagrass” value [9, 17] was 98, the “Plant response rating, Bermudagrass” value [9, 22] was 100 and the “Plant response rating, Ragweed” value [10, 20] was 70. The “Plant response rating, Ragweed” value [10, 13] was 80, the “Plant response rating, Ragweed” value [10, 14] was 95 and the “Plant response rating, Ragweed” value [10, 21] was 98. For the same compound, the “Plant response rating, Ragweed” value [10, 16] was 55, the “Plant response rating, Ragweed” value [10, 17] was 65 and the “Plant response rating, Ragweed” value [10, 22] was 85. For the same compound, the “Plant response rating, Crabgrass, Large” value [11, 20] was 60, the “Plant response rating, Crabgrass, Large” value [11, 12] was 98 and the “Plant response rating, Crabgrass, Large” value [11, 13] was 75. The “Plant response rating, Crabgrass, Large” value [11, 14] was 80, the “Plant response rating, Crabgrass, Large” value [11, 21] was 85 and the “Plant response rating, Crabgrass, Large” value [11, 16] was 10. The “Plant response rating, Crabgrass, Large” value [11, 17] was 60 and the “Plant response rating, Crabgrass, Large” value [11, 22] was 95.
